Values of other authors in patent US20130053422A1, “Antimicrobial Compositions” (priority 2010, published 2013).

What was measured:
Conditions in all cases: after 5 to 60 minutes
[1] = test system: Herpes virus type 1
[2] = test system: Vaccinia virus
[3] = test system: bovine parainfluenzae 3

CCCCCCCCCCCC(=O)N[C@@H](CCCN=C(N)N)C(=O)OCC [LAE, lauric arginate]
nearly complete reduction: reduction of Herpes virus type 1 [1] | reduction of Vaccinia virus [2] | reduction of bovine parainfluenzae 3 [3]
